Experimental data published in paper PMC11285977, “Identification of drug-like molecules targeting the ATPase activity of dynamin-like EHD4” (PLOS ONE, 2024).
Like-named read-outs stand apart in the source and are kept apart here.

Legend:
[1] = target: T1, DNM1L (Homo sapiens, UniProt O00429); assay: MLG-based stimulated GTPase assay of DNM1L (counter-screen); format: biochemical; conditions: 300 nM DNM1L, 40 μM GTP, 25°C; inhibitor 0.125 μM to 50 μM (IC50 curve) or 10 μM (time course)
T1 construct: human DNM1L isoform 2 (UniProtID: O00429-3, residues 1–710); made in house
Description: Fig 5 Biochemical characterization of the primary hits. A One-hour time course of the MLG-based enzymatic ATPase assay in the presence of 50 μM inhibitor. EHD4^ΔN (blue curve) represents the positive control. B Primary hits were validated at 50 μM inhibitor concentration in an HPLC setup to exclude assay bias. ATPase assays done in A and B were in standard conditions. C Primary hits were tested against EHD2. Only MS8 had no effect on EHD2 ATPase activity. ATPase assay was done at an EHD2 concentration of 5 μM in the presence of 500 μg/ml Folch liposomes and 50 μM ATP in assay buffer at 30°C. D Changes in melting temperature of 5 μM EHD4^ΔN were studied in the presence of 50 μM inhibitor by thermal shift assay. MS1 and MS10 destabilized the protein, as evident by negative ΔTm, whereas MS8 had no effect on the stability of EHD4^ΔN. […] Shown is an IC50 curve plotted with an inhibitor concentration range from 0.125 μM to 50 μM. F MS8 substructure obtained by dissecting the diphenlyether bond. This substructure was used in our chemical search to have the highest diversity of the chemical space and the optimal coverage of chemical vectors to gain a structure-activity relationship.Data points represents the mean of two or more independent experiments and the error bar signifies the range or standard deviation. […] TEXT PRINTED IN THE PICTURE: (D) EHD4^ΔN: Tm = 44.5 °C DOUBTS OF THE COPYIST ABOUT THIS PICTURE: Panel D: 'EHD4^ΔN Tm = 44.5 °C' is the only printed result. It refers to the protein itself (reference melting temperature), not to one of the inhibitors MS1, MS8 or MS10, so it may not count as a result for a substance.
Supplementary file pone.0302704.s004.tif: S4 Fig DNM1L and EHD2 enzymatic assay. A EHD2 ATPase activity by an HPLC-based method. Assay conditions were 5 μM EHD2, 50 μM ATP and 1 mg/ml Folch liposomes at 30°C. […] C Km was determined by first calculating the amount of hydrolyzed GTP in (B) using the standard curve reported in S2C Fig and then plotting the initial rates of the reactions versus the substrate concentration. […]

[2] = target: T2, EHD2 (Mus musculus, UniProt Q8BH64); assay: HPLC-based EHD2 ATPase assay; format: biochemical; conditions: 5 μM EHD2, 500 μg/ml Folch liposomes, 50 μM ATP, 30°C
T2 construct: Mouse EHD2 (Uniprot Q8BH64, residues 1–543); made in house
T2 sequence (Q8BH64 1-543): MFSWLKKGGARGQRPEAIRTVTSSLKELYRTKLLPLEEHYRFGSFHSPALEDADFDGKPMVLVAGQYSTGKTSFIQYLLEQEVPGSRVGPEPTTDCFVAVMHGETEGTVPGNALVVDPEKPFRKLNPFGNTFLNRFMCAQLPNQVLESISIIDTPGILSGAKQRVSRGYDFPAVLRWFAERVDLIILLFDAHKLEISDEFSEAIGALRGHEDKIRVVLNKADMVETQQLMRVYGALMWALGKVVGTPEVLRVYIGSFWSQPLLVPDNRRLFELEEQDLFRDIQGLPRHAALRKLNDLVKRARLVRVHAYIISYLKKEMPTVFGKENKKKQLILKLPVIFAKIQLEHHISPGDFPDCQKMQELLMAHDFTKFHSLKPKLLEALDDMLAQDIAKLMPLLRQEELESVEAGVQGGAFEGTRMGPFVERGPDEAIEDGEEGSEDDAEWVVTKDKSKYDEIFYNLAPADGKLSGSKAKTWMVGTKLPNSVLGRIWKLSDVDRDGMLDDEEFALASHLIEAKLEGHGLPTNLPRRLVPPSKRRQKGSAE
Description: ATPase assay was performed as mentioned above and at defined time points, reaction aliquots were diluted three times in reaction buffer (50 mM Tris, 150 mM NaCl, pH 7.5) and quickly flash frozen in liquid nitrogen. Samples were applied to an HPLC and nucleotides were separated with reversed phase column (C18 100*4.6 mm) equilibrated with running buffer containing 100 mM potassium phosphate buffer pH 6.5, 10 mM tetrabutylammonium bromide, 7.5% (v/v) acetonitrile. Adenine nucleotides were detected by absorption at 254 nm and quantified by integrating the corresponding nucleotide peaks and determining the ADP/ATP ratios.
Fig 5 Biochemical characterization of the primary hits. A One-hour time course of the MLG-based enzymatic ATPase assay in the presence of 50 μM inhibitor. EHD4^ΔN (blue curve) represents the positive control. B Primary hits were validated at 50 μM inhibitor concentration in an HPLC setup to exclude assay bias. ATPase assays done in A and B were in standard conditions. C Primary hits were tested against EHD2. Only MS8 had no effect on EHD2 ATPase activity. ATPase assay was done at an EHD2 concentration of 5 μM in the presence of 500 μg/ml Folch liposomes and 50 μM ATP in assay buffer at 30°C. D Changes in melting temperature of 5 μM EHD4^ΔN were studied in the presence of 50 μM inhibitor by thermal shift assay. MS1 and MS10 destabilized the protein, as evident by negative ΔTm, whereas MS8 had no effect on the stability of EHD4^ΔN. […] Shown is an IC50 curve plotted with an inhibitor concentration range from 0.125 μM to 50 μM. F MS8 substructure obtained by dissecting the diphenlyether bond. […]
Supplementary file pone.0302704.s004.tif: S4 Fig DNM1L and EHD2 enzymatic assay. […] B Initial velocities of DNM1L GTPase activity at 300 nM DNM1L, and, 500 μg/ml synthetic DOPS, T = 25°C and at different GTP concentrations were determined by a linear fit. C Km was determined by first calculating the amount of hydrolyzed GTP in (B) using the standard curve reported in S2C Fig and then plotting the initial rates of the reactions versus the substrate concentration. […]

[3] = target: T3, EHD4^ΔN (Mus musculus, UniProt Q9EQP2); assay: Malachite green (MLG)-based liposome-stimulated ATPase assay of EHD4ΔN; format: biochemical; conditions: read-out: IC50, EHD4ΔN ATPase inhibition
T3 construct: mouse EHD4 (Uniprot Q1MWP8, residues 22–541, EHD4^ΔN); His6 followed by PreScission cleavage site (N, cleaved yes); made in house; host or cells: E. coli BL21 DE3 Rosetta
T3 sequence (Q9EQP2 22-541): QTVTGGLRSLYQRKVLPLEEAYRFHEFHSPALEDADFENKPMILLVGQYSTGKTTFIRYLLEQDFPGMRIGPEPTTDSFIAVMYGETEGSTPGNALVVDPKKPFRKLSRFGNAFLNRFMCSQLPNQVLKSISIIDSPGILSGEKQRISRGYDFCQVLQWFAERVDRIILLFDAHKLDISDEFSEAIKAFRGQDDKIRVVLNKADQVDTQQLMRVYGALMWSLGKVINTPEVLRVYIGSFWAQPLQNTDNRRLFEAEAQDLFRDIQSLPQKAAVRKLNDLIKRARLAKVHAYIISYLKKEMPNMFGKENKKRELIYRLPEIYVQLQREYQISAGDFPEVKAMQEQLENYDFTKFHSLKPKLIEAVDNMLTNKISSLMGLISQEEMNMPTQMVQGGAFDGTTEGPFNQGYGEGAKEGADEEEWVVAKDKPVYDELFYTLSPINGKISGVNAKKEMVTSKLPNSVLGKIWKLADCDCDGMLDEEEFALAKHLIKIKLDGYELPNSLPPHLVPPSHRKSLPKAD
Description: ATPase assays were performed in a 384 well plate at 25°C (if not otherwise indicated). The assay buffer contained 20 mM HEPES, 150 mM KCl, 0.5 mM MgCl2, pH 7.5. 30 μM of ATP was mixed with 50 μg/ml DOPS in assay buffer. Reaction was started by adding 200 nM EHD4^ΔN. At any given time-point, 25 μl of the reaction was taken out and mixed with 75 μl of the dye in a 384 well plate. The reaction gets quenched by the addition of the dye which denatures the protein. Absorbance at 650 nm was measured in a plate reader (Tecan, Infinite M200).
Screening was conducted at the Screening Unit of the Leibniz-Forschungsinstitut für Molekulare Pharmakologie (FMP) using a kinase drug library and the ‘diversity set’. 15,840 compounds were tested as singlets in 384 well plate format. A master mix (MM) was prepared in the assay buffer to have a final ATP concentration of 30 μM and DOPS concentration of 50 μg/ml. A 10 mM DMSO solution of the compounds was serially diluted, first with DMSO and then with the MM to a final concentration of 10 μM (1% of DMSO), using the Tecan-Evo workstation (pipetting robot). EHD4^ΔN (200 nM) was pipetted using multi-drop dispensing cassette. To have homogenous enzymatic activity, the plates were vortexed using a microplate mixer at 2,000 rpm for 10 s. The plates were incubated for 15 min at room temperature and 75 μl of MLG dye added with the cassette. The plates were measured in a Perkin Elmer Envision plate reader.
Data were analyzed with an automated pipeline using KNIME software. For the individual plates, the corresponding Z´ values and SNR were calculated. Compared to the control´s absorbance at 650 nm (Abs650), compounds were classified as inhibitors if the %Abs650 was ≤ 25%. These hits were picked from the drug library and used for further validation of IC50 determination and counter screening. IC50 values were determined in the same setup with varying inhibitor concentrations from 0.125 μM to 50 μM.

[4] = target: T3, EHD4^ΔN; assay: Thermal shift assay (TSA); format: binding; conditions: 5 μM EHD4ΔN, 50 μM inhibitor
Description: TSA was done in a CFX96 touch-real time PCR using a fluorescent dye from ThermoFisher Scientific (catalogue number 4461146). Reactions (5 μM EHD4^ΔN, 50 μM inhibitor and 1X dye) were prepared on ice, to a final volume of 50 μl and transferred to a 96 well PCR plate and then sealed with a plastic film. CFX96 was precooled to 4°C and the PCR plate was inserted. The fluorescence was measured from 4°C to 80°C with 0.5°C temperature steps. Protein melting temperature was calculated with the provided software (Bio-Rad) and plotted as bar diagram using GraphPad Prism 7.05.

[5] = compounds picked from the drug library, duplicates, inhibitor 0.125 μM to 50 μM, 200 nM EHD4ΔN, 30 μM ATP, 50 μg/ml DOPS

T1 sequence (O00429 1-710 isoform O00429-3): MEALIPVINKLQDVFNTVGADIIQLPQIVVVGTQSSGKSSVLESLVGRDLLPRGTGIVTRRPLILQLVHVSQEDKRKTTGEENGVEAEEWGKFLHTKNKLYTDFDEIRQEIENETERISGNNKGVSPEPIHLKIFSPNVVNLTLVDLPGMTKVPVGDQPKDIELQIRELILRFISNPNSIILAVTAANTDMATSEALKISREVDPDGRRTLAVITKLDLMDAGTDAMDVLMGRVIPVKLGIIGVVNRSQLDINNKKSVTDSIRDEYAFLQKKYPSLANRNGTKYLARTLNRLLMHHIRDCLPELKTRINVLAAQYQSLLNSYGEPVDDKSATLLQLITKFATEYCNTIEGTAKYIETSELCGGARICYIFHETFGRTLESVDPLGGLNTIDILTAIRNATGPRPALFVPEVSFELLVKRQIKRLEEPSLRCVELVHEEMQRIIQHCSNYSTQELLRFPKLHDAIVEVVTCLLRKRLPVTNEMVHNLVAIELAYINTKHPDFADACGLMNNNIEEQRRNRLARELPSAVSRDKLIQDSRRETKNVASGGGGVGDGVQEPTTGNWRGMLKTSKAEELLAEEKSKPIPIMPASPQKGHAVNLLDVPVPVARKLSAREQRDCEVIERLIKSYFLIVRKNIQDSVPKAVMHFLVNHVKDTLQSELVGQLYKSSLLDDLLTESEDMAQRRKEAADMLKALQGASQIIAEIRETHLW

effect on stimulated GTPase activity of DNM1L [1]	effect on EHD2 enzymatic (ATPase) activity [2]	IC50 [3, 5]	IC50 ([3]; repurchased compounds)	effect on EHD4ΔN stability (thermal shift) [4]	ΔTm at 50 µM ([4]; Tm of protein alone 44.5°C)	SMILES
did not interfere	inhibited	0.92 µM	2.4 µM	destabilizing effect	-5 °C	O=C(CCCCCn1sc2ccccc2c1=O)Nc1ccccc1O [MS1, N-(2-hydroxyphenyl)-6-(3-oxo-2,3-dihydro-1,2-benzothiazol-2-yl)hexanamide]
did not inhibit	no effect	3.8 µM	4.9 µM	no such effect		Cc1csc(NC(=O)c2cccc(Oc3ccccc3)c2)n1 [MS8, N-(4-methyl-1,3-thiazol-2-yl)-3-phenoxybenzamide]
did not interfere	inhibited	2.9 µM	4.8 µM	diminished EHD4^ΔN stability		Oc1cc2c(cc1C(c1ccc(C(F)(F)F)cc1)N1CCOCC1)OCO2 (stereo not shown) [MS10, 6-(Morpholino(4-(Trifluormethyl)phenyl)methyl)-1,3-Benzodioxol-5-ol]
